# Source: US20100279990A1, “ANTIPROLIFERATIVE COMPOUNDS, COMPOSITIONS AND METHODS OF USE” (RAMOT AT TEL-AVIV UNIVERSITY LTD., priority 2006, published 2010)
# What was measured:
# RXF 393NL = experiment: Monolayer Assay, PI: RXF 393NL (Renal); format: cell-based, human
# Excerpt: (§1) This example illustrates cell proliferation data in the form of IC50, IC70 and IC90 values obtained by exposure of human cancer cell-lines to compound (Ia). […].
# MEXF 462NL = experiment: Monolayer Assay, PI: MEXF 462NL (Melanoma); format: cell-based, human
# Excerpt: as §1
# OVXF 899L = experiment: Monolayer Assay, PI: OVXF 899L (Ovarian Cancer); format: cell-based, human
# Excerpt: as §1
# [1] = test system: Caspase 3 activity of LS1034 human colon MDR carcinoma cells; experiment: Caspase-3 activity in LS1034 human colon MDR carcinoma cells; format: cell-based; details: 10 or 20 μM, 4 hr after exposure
# Experimental: Caspase 3 activity was measured by an enzymatic fluorimetric method using a fluorigenic substrate (Ac-DEVD-AMC), which produces blue fluorescence detected at 360 nm wavelength. […] When AMC is cleaved from the substrate by caspase-3, and caspase-3-like enzymes, it produces a yellow-green fluorescence, which can be monitored by a fluorimeter at 460 nm. The amount of yellow green fluorescence is proportional to the activity of caspase-3 in the cell extract sample.
# Whole cell lysate was added to a buffer containing 100 μM peptide substrate, 100 mM HEPES, 10% glycerol, 1 mM EDTA and 10 mM dithiothreitol. Measurements were taken every 5 min for 80 min. These experiments were also monitored in the presence of a specific caspase-3 inhibitor, DEVD-AMC-CHO, which was added after 45 or 60 min to the reaction mixture, to ascertain the specificity of the enzyme.
# BXF T24 = experiment: Monolayer Assay, PI: BXF T24 (Bladder); format: cell-based, human
# Excerpt: as §1
# Jurkat Lymphoma cells = experiment: Viability of Jurkat Lymphoma cells, combination with Doxorubicin; format: cell-based; details: Homo sapiens, read-out: inhibition of cell viability
# LXF 526L = experiment: Monolayer Assay, PI: LXF 526L (Lung); format: cell-based, human
# Excerpt: as §1
# PRXF PC3M = experiment: Monolayer Assay, PI: PRXF PC3M (Prostate); format: cell-based, human
# Excerpt: as §1
# HNXF 536L = experiment: Monolayer Assay, PI: HNXF 536L; format: cell-based, human
# Excerpt: as §1
# RXF 1781L = experiment: Monolayer Assay, PI: RXF 1781L (Renal); format: cell-based, human
# Excerpt: as §1
# MEXF 520L = experiment: Monolayer Assay, PI: MEXF 520L (Melanoma); format: cell-based, human
# Excerpt: as §1
# MEXF 514L = experiment: Monolayer Assay, PI: MEXF 514L (Melanoma); format: cell-based, human
# Excerpt: as §1
# MAXF MCF7 = experiment: Monolayer Assay, PI: MAXF MCF7 (Breast); format: cell-based, human
# Excerpt: as §1
smiles,measurement,setting,value
"CN[C@H]1CC[C@@H](c2ccc(Cl)c(Cl)c2)c2ccc(C#CCCCO)cc21 [compound (Ia), (1S-cis)-4-(3,4-dichlorophenyl)-7-(5-hydroxy-1-pentyn-1-yl)-1,2,3,4-tetrahydro-N-methyl-1-naphthalenamine hydroiodide]",Test/Control (%),RXF 393NL; 2.3 μg/ml,91%
same,Test/Control activity class,RXF 393NL; 2.3 μg/ml,− (− (T/C = 50))
same,Test/Control (%),RXF 393NL; 7.5 μg/ml,5%
same,Test/Control activity class,RXF 393NL; 7.5 μg/ml,+++ (+++ (T/C < 10))
same,Test/Control (%),RXF 393NL; 23. μg/ml,1%
same,Test/Control activity class,RXF 393NL; 23. μg/ml,+++ (+++ (T/C < 10))
same,Test/Control (%),RXF 393NL; 75. μg/ml,1%
same,Test/Control activity class,RXF 393NL; 75. μg/ml,+++ (+++ (T/C < 10))
same,Test/Control (%),RXF 393NL; .75 μg/ml,96%
same,Test/Control activity class,RXF 393NL; .75 μg/ml,− (− (T/C = 50))
same,Test/Control (%),MEXF 462NL; 2.3 μg/ml,107%
same,Test/Control activity class,MEXF 462NL; 2.3 μg/ml,− (− (T/C = 50))
same,Test/Control (%),MEXF 462NL; 7.5 μg/ml,20%
same,Test/Control activity class,MEXF 462NL; 7.5 μg/ml,++ (++ (10 <= T/C < 30))
same,Test/Control (%),MEXF 462NL; 23. μg/ml,2%
same,Test/Control activity class,MEXF 462NL; 23. μg/ml,+++ (+++ (T/C < 10))
same,Test/Control (%),MEXF 462NL; 75. μg/ml,2%
same,Test/Control activity class,MEXF 462NL; 75. μg/ml,+++ (+++ (T/C < 10))
same,Test/Control (%),MEXF 462NL; .75 μg/ml,102%
same,Test/Control activity class,MEXF 462NL; .75 μg/ml,− (− (T/C = 50))
same,Test/Control (%),OVXF 899L; 2.3 μg/ml,94%
same,Test/Control activity class,OVXF 899L; 2.3 μg/ml,− (− (T/C = 50))
same,Test/Control (%),OVXF 899L; 7.5 μg/ml,10%
same,Test/Control activity class,OVXF 899L; 7.5 μg/ml,++ (++ (10 <= T/C < 30))
same,Test/Control (%),OVXF 899L; 23. μg/ml,3%
same,Test/Control activity class,OVXF 899L; 23. μg/ml,+++ (+++ (T/C < 10))
same,Test/Control (%),OVXF 899L; 75. μg/ml,4%
same,Test/Control activity class,OVXF 899L; 75. μg/ml,+++ (+++ (T/C < 10))
same,Test/Control (%),OVXF 899L; .75 μg/ml,100%
same,Test/Control activity class,OVXF 899L; .75 μg/ml,− (− (T/C = 50))
same,caspase-3 activity,[1],dose dependent increase in the activity of caspase-3
same,Test/Control (%),BXF T24; 2.3 μg/ml,93%
same,Test/Control activity class,BXF T24; 2.3 μg/ml,− (− (T/C = 50))
same,Test/Control (%),BXF T24; 7.5 μg/ml,53%
same,Test/Control activity class,BXF T24; 7.5 μg/ml,− (− (T/C = 50))
same,Test/Control (%),BXF T24; 23. μg/ml,2%
same,Test/Control activity class,BXF T24; 23. μg/ml,+++ (+++ (T/C < 10))
same,Test/Control (%),BXF T24; 75. μg/ml,2%
same,Test/Control activity class,BXF T24; 75. μg/ml,+++ (+++ (T/C < 10))
same,Test/Control (%),BXF T24; .75 μg/ml,88%
same,Test/Control activity class,BXF T24; .75 μg/ml,− (− (T/C = 50))
same,cytotoxicity at 5 µM,Jurkat Lymphoma cells; 5 μM alone,18%
same,cytotoxicity at 10 µM,Jurkat Lymphoma cells; 10 μM alone,59.5%
same,Test/Control (%),LXF 526L; 2.3 μg/ml,81%
same,Test/Control activity class,LXF 526L; 2.3 μg/ml,− (− (T/C = 50))
same,Test/Control (%),LXF 526L; 7.5 μg/ml,6%
same,Test/Control activity class,LXF 526L; 7.5 μg/ml,+++ (+++ (T/C < 10))
same,Test/Control (%),LXF 526L; 23. μg/ml,5%
same,Test/Control activity class,LXF 526L; 23. μg/ml,+++ (+++ (T/C < 10))
same,Test/Control (%),LXF 526L; 75. μg/ml,4%
same,Test/Control activity class,LXF 526L; 75. μg/ml,+++ (+++ (T/C < 10))
same,Test/Control (%),LXF 526L; .75 μg/ml,92%
same,Test/Control activity class,LXF 526L; .75 μg/ml,− (− (T/C = 50))
same,Test/Control (%),PRXF PC3M; 2.3 μg/ml,91%
same,Test/Control activity class,PRXF PC3M; 2.3 μg/ml,− (− (T/C = 50))
same,Test/Control (%),PRXF PC3M; 7.5 μg/ml,4%
same,Test/Control activity class,PRXF PC3M; 7.5 μg/ml,+++ (+++ (T/C < 10))
same,Test/Control (%),PRXF PC3M; 23. μg/ml,1%
same,Test/Control activity class,PRXF PC3M; 23. μg/ml,+++ (+++ (T/C < 10))
same,Test/Control (%),PRXF PC3M; 75. μg/ml,1%
same,Test/Control activity class,PRXF PC3M; 75. μg/ml,+++ (+++ (T/C < 10))
same,Test/Control (%),PRXF PC3M; .75 μg/ml,95%
same,Test/Control activity class,PRXF PC3M; .75 μg/ml,− (− (T/C = 50))
same,Test/Control (%),HNXF 536L; 2.3 μg/ml,102%
same,Test/Control activity class,HNXF 536L; 2.3 μg/ml,− (− (T/C = 50))
same,Test/Control (%),HNXF 536L; 7.5 μg/ml,97%
same,Test/Control activity class,HNXF 536L; 7.5 μg/ml,− (− (T/C = 50))
same,Test/Control (%),HNXF 536L; 23. μg/ml,4%
same,Test/Control activity class,HNXF 536L; 23. μg/ml,+++ (+++ (T/C < 10))
same,Test/Control (%),HNXF 536L; 75. μg/ml,3%
same,Test/Control activity class,HNXF 536L; 75. μg/ml,+++ (+++ (T/C < 10))
same,Test/Control (%),HNXF 536L; .75 μg/ml,112%
same,Test/Control activity class,HNXF 536L; .75 μg/ml,− (− (T/C = 50))
same,Test/Control (%),RXF 1781L; 2.3 μg/ml,76%
same,Test/Control activity class,RXF 1781L; 2.3 μg/ml,− (− (T/C = 50))
same,Test/Control (%),RXF 1781L; 7.5 μg/ml,4%
same,Test/Control activity class,RXF 1781L; 7.5 μg/ml,+++ (+++ (T/C < 10))
same,Test/Control (%),RXF 1781L; 23. μg/ml,3%
same,Test/Control activity class,RXF 1781L; 23. μg/ml,+++ (+++ (T/C < 10))
same,Test/Control (%),RXF 1781L; 75. μg/ml,3%
same,Test/Control activity class,RXF 1781L; 75. μg/ml,+++ (+++ (T/C < 10))
same,Test/Control (%),RXF 1781L; .75 μg/ml,96%
same,Test/Control activity class,RXF 1781L; .75 μg/ml,− (− (T/C = 50))
same,Test/Control (%),MEXF 520L; 2.3 μg/ml,83%
same,Test/Control activity class,MEXF 520L; 2.3 μg/ml,− (− (T/C = 50))
same,Test/Control (%),MEXF 520L; 7.5 μg/ml,8%
same,Test/Control activity class,MEXF 520L; 7.5 μg/ml,++ (++ (10 <= T/C < 30))
same,Test/Control (%),MEXF 520L; 23. μg/ml,2%
same,Test/Control activity class,MEXF 520L; 23. μg/ml,+++ (+++ (T/C < 10))
same,Test/Control (%),MEXF 520L; 75. μg/ml,4%
same,Test/Control activity class,MEXF 520L; 75. μg/ml,+++ (+++ (T/C < 10))
same,Test/Control (%),MEXF 520L; .75 μg/ml,102%
same,Test/Control activity class,MEXF 520L; .75 μg/ml,− (− (T/C = 50))
same,Test/Control (%),MEXF 514L; 2.3 μg/ml,90%
same,Test/Control activity class,MEXF 514L; 2.3 μg/ml,− (− (T/C = 50))
same,Test/Control (%),MEXF 514L; 7.5 μg/ml,3%
same,Test/Control activity class,MEXF 514L; 7.5 μg/ml,+++ (+++ (T/C < 10))
same,Test/Control (%),MEXF 514L; 23. μg/ml,2%
same,Test/Control activity class,MEXF 514L; 23. μg/ml,+++ (+++ (T/C < 10))
same,Test/Control (%),MEXF 514L; 75. μg/ml,3%
same,Test/Control activity class,MEXF 514L; 75. μg/ml,+++ (+++ (T/C < 10))
same,Test/Control (%),MEXF 514L; .75 μg/ml,108%
same,Test/Control activity class,MEXF 514L; .75 μg/ml,− (− (T/C = 50))
same,Test/Control (%),MAXF MCF7; 2.3 μg/ml,67%
same,Test/Control activity class,MAXF MCF7; 2.3 μg/ml,− (− (T/C = 50))
same,Test/Control (%),MAXF MCF7; 7.5 μg/ml,5%
same,Test/Control activity class,MAXF MCF7; 7.5 μg/ml,+++ (+++ (T/C < 10))
same,Test/Control (%),MAXF MCF7; 23. μg/ml,2%
same,Test/Control activity class,MAXF MCF7; 23. μg/ml,+++ (+++ (T/C < 10))
same,Test/Control (%),MAXF MCF7; 75. μg/ml,3%
same,Test/Control activity class,MAXF MCF7; 75. μg/ml,+++ (+++ (T/C < 10))
same,Test/Control (%),MAXF MCF7; .75 μg/ml,93%
same,Test/Control activity class,MAXF MCF7; .75 μg/ml,− (− (T/C = 50))
